Experimental data as given in patent US20150133450A1, “METHODS AND COMPOSITIONS USEFUL FOR TREATING DISEASES INVOLVING BCL-2 FAMILY PROTEINS WITH QUINOLINE DERIVATIVES” (Eutropics Pharmaceuticals, Inc., priority 2012, published 2015).

How the values were obtained:
DHL-10 cell line = assay: In situ mitochondrial cytochrome c release assay, DHL-10; format: cell-based; conditions: semi-permeabilized cells, 1 hour; Bax/Bak-deficient cell line; FIG. 3
Text: (§1) The on-target activity of compound 12 was validated. Changes in mitochondrial integrity were observed utilizing anti-cytochrome c conjugated to Alexa488 (BD). When the mitochondria are intact, they retain cytochrome c and have bright, punctate staining with the antibody whereas cells with compromised mitochondrial integrity will lose cytochrome c and will not stain with the antibody. This can be observed by microscopy as well as measured by a shift in fluorescence on the FL1 channel of a flow cytometer.
(§2) The selective response of mitochondria in semi-permeabilized cell lines to the compounds was observed. The assay was adapted from (Campos et al. (2006) Cytometry Part A. 69(A):515-523, which is hereby incorporated by reference in its entirety).
(§3) Suspension cell lines SUDHL6, SUDHL8, and SUDHL10 were grown in RPMI, washed once in 1×PBS and re-suspended at a concentration of 2e6/ml in assay buffer with 0.0025% Digitonin. Assay buffer; 300 mM Trehalose, 10 mM HEPES-KOH pH 7.7, 80 mM KCl, 1 mM EGTA, 1 mM EDTA, 0.1% BSA, 5 mM Succinate. […] Cytochrome c loss was measured by microscopy. At least 100 cells per treatment were counted and scored as positive for cytochrome c loss if they lacked staining. In both methods DMSO was calculated as 0% cytochrome c loss and the Bim response for DHL6 was used to determine 100% cytochrome c loss.

DHL-8 cell line = assay: In situ mitochondrial cytochrome c release assay, DHL-8; format: cell-based; conditions: semi-permeabilized cells, 1 hour; reduced mitochondrial priming; FIG. 3
Text: as §1, §2, §3

DHL-6 cell line = assay: In situ mitochondrial cytochrome c release assay, DHL-6; format: cell-based; conditions: semi-permeabilized cells, 1 hour; Bax/Bak-functional cell line; FIG. 3
Text: as §1, §2, §3

Bcl-2 1863 cell line = assay: DAPI fluorescence cell-based cytotoxicity (apoptosis) assay, Bcl-2 1863; design: species or system mouse; conditions: 1 μM, 500 nM, 250 nM, 125 nM; 24 hours; relative to Mcl-1 1780; FIG. 2
Experimental: (§4) The mouse leukemia-derived cell lines Mcl-1-1780 and Bcl-2-1863 (Ryan et al., Proc. Nat. Acad. Sci USA, 107, 12895-12900, which is hereby incorporated by reference in its entirety) were obtained under license from Dana Farber Cancer Institute. Cells were grown in RPMI 1640 medium (GIBCO-BRL) with 2 mM L-glutamine, 4.5 g/L glucose, 1.0 mM sodium pyruvate and 5% fetal bovine serum. Cells were expanded in tissue culture in appropriate media and then sub-cultured into 96-well plates at a seeding density of 20,000 cells per well. After incubation for 24 hours, cells were treated with compounds that are titrated into appropriate medium with FCS. Four concentrations of compound were used: 1 μM, 500 nM, 250 nM, and 125 nM. Assay was run in triplicate for each compound at each concentration and averages were calculated. Cells were treated with compound for 24 hours, then fixed with methanol and stained with the DNA-binding agent DAPI (4′,6-diamidino-2-phenylindole). The cells were then examined by fluorescent microscopy; cells in which caspase 3 and caspase 7 have not been activated will emit at […] when excited by […] light. Caspase-mediated cleavage of nucleosomal proteins causes condensed, pycnotic nuclear morphology that may be measured by cell counting.

Mcl-1 1780 cell line = assay: DAPI fluorescence cell-based cytotoxicity (apoptosis) assay, Mcl-1 1780; design: species or system mouse; conditions: 1 μM, 500 nM, 250 nM, 125 nM; 24 hours; FIG. 2
Experimental: as §4

## CCN1CCN(C(c2ccc(C(F)(F)F)cc2)c2ccc3cccnc3c2O)CC1 (centres unmarked) [Compound 12, 7-((4-ethylpiperazin-1-yl)(4-(trifluoromethyl)phenyl)methyl)quinolin-8-ol]
DHL-10 cell line
  Cytochrome c release, DHL-10: lack of activity
DHL-8 cell line
  Cytochrome c release, DHL-8: reduced activity
DHL-6 cell line
  Cytochrome c release, DHL-6: activity
Bcl-2 1863 cell line
  Induction of apoptosis (DAPI nuclear morphology) in Bcl-2 1863: significantly lesser degree
Mcl-1 1780 cell line
  Induction of apoptosis (DAPI nuclear morphology) in Mcl-1 1780: induce apoptosis
